In ChEMBL document CHEMBL1130637, “Pyrrolnitrin and related pyrroles endowed with antibacterial activities against Mycobacterium tuberculosis” (1998):
Converted amounts (≈) assume the structure as drawn.

Assays:
[1] = tested on: Vero; experiment: In vitro cytotoxicity against VERO cells.; format: functional, Chlorocebus sabaeus
[2] = tested on: Mycobacterium tuberculosis; experiment: Antimycobacterial activity against Mycobacterium tuberculosis CIP 103471; format: functional
[3] = tested on: Mycobacterium gordonae; experiment: Antimycobacterial activity against Mycobacterium gordonae CIP 6427; format: functional
[4] = tested on: Mycobacterium marinum; experiment: Antimycobacterial activity against Mycobacterium marinum CIP 6423; format: functional
[5] = tested on: Mycobacterium avium; experiment: Antimycobacterial activity against Mycobacterium avium CIP 103317; format: functional
[6] = tested on: Mycolicibacterium smegmatis; experiment: Antibacterial activity against Mycobacterium smegmatis CIP 103599.; format: functional
[7] = tested on: Vero; experiment: Compound was tested for cytotoxicity against VERO cells; format: functional, Chlorocebus sabaeus
[8] = tested on: Mycobacterium tuberculosis; experiment: Compound was tested for anti-mycobacterial activity against Mycobacterium tuberculosis CIP 103471; format: functional
[9] = tested on: Mycobacterium marinum; experiment: Compound was tested for anti-mycobacterial activity against Mycobacterium marinum CIP 6423.; format: functional
[10] = tested on: Mycobacterium gordonae; experiment: Compound was tested for anti-mycobacterial activity against Mycobacterium gordonae CIP 6427; format: functional
[11] = tested on: Mycobacterium avium; experiment: Compound was tested for anti-mycobacterial activity against Mycobacterium avium CIP 103317; format: functional

Row | SMILES | MTD50 [1] [µg/mL] | MIC [2] [µg/mL] | MIC [3] [µg/mL] | MIC [4] [µg/mL] | MIC [5] [µg/mL] | MIC [6] [µg/mL] | MTD50 [7] [µg/mL] | MIC [8] [µg/mL] | MIC [9] [µg/mL] | MIC [10] [µg/mL] | MIC [11] [µg/mL]
1 | CCOC(=O)c1cn(Cc2ccc(F)cc2)cc1-c1ccc(OC)cc1 | 2 | 16 (≈ 45.3 µM) | > 16 | > 16 | > 16 | > 16 |  |  |  |  | 
2 | CCOC(=O)c1cn(C)cc1-c1ccc(OC)cc1 |  |  | > 16 | > 16 | > 16 | > 16 | 4 | > 16 |  |  | 
3 | CCOC(=O)c1c[nH]cc1-c1ccc(Cl)cc1Cl | 2 | > 16 | > 16 | > 16 | > 16 | > 16 |  |  |  |  | 
4 | CCOC(=O)c1cn(Cc2ccccc2)cc1-c1ccc(OC)cc1 | 8 | 8 (≈ 23.9 µM) | > 16 | > 16 | > 16 | > 16 |  |  |  |  | 
5 | Cn1cc(-c2ccc(Cl)cc2)c([N+](=O)[O-])c1 |  | > 16 | > 16 | > 16 | > 16 | > 16 |  |  |  |  | 
6 | O=[N+]([O-])c1c[nH]cc1-c1ccccc1Cl |  | > 16 | > 16 | > 16 | > 16 | > 16 |  |  |  |  | 
7 | Cn1cc(C(=O)O)c(-c2ccc(Cl)cc2)c1 |  | > 16 | > 16 | > 16 | 16 (≈ 67.9 µM) | > 16 |  |  |  |  | 
8 | NNC(=O)c1ccncc1 [ISONIAZID] | 32 | 0.25 (≈ 1.82 µM) | 32 (≈ 233 µM) | 16 (≈ 117 µM) | 32 (≈ 233 µM) | 64 (≈ 467 µM) |  |  |  |  | 
9 | NC(=O)c1c[nH]cc1-c1ccc(Cl)cc1Cl | 0.125 | > 16 | > 16 | > 16 | 16 (≈ 62.7 µM) | > 16 |  |  |  |  | 
10 | CCOC(=O)c1cn(Cc2ccc(F)cc2)cc1-c1ccccc1 | 4 | > 16 | > 16 | > 16 | 16 (≈ 49.5 µM) | > 16 |  |  |  |  | 
11 | CCOC(=O)c1cn(C)cc1-c1ccc(Cl)cc1 |  | > 16 | > 16 | > 16 | > 16 | > 16 |  |  |  |  | 
12 | O=[N+]([O-])c1c[nH]cc1-c1cccc(Cl)c1Cl | 1 | 16 (≈ 62.2 µM) | > 16 |  | > 16 | > 16 |  |  | > 16 |  | 
13 | O=[N+]([O-])c1c[nH]cc1-c1ccc(Cl)cc1Cl | 1 | 1 (≈ 3.89 µM) | > 16 | > 16 | 16 (≈ 62.2 µM) | > 16 |  |  |  |  | 
14 | CCOC(=O)c1c[nH]cc1-c1ccc(Cl)cc1 | 4 | 16 (≈ 64.1 µM) | > 16 | > 16 | 4 (≈ 16 µM) | > 16 |  |  |  |  | 
15 | O=[N+]([O-])c1c[nH]cc1-c1cccc(Cl)c1 |  | > 16 | > 16 | > 16 | > 16 | > 16 |  |  |  |  | 
16 | O=[N+]([O-])c1c(Cl)cccc1-c1c[nH]cc1Cl [PYRROLNITRIN] | 8 |  |  | > 16 |  | 16 (≈ 62.2 µM) |  | 4 (≈ 15.6 µM) |  | > 16 | 8 (≈ 31.1 µM)
17 | NC(=O)c1c[nH]cc1-c1ccc(Cl)cc1 | 16 | > 16 | > 16 | > 16 | > 16 | > 16 |  |  |  |  | 
18 | OCc1cn(Cc2ccccc2Cl)cc1-c1ccc(Cl)cc1 | 15 | 8 (≈ 24.1 µM) | > 16 | > 16 | > 16 | > 16 |  |  |  |  | 
19 | CN[C@@H]1[C@H](O[C@H]2[C@H](O[C@H]3[C@H](O)[C@@H](O)[C@H](N=C(N)N)[C@@H](O)[C@@H]3N=C(N)N)O[C@@H](C)[C@]2(O)C=O)O[C@@H](CO)[C@H](O)[C@H]1O [STREPTOMYCIN] | 128 | 0.5 (≈ 0.86 µM) | 16 (≈ 27.5 µM) | 32 (≈ 55 µM) | 8 (≈ 13.8 µM) | 8 (≈ 13.8 µM) |  |  |  |  | 
20 | O=[N+]([O-])c1c[nH]cc1-c1ccc(Cl)cc1 |  | > 16 | > 16 | > 16 | > 16 | > 16 |  |  |  |  | 
21 | COc1ccc(-c2c[nH]cc2[N+](=O)[O-])c(Cl)c1 | 2 | > 16 | > 16 | > 16 | 16 (≈ 63.3 µM) | > 16 |  |  |  |  | 
22 | O=[N+]([O-])c1c[nH]cc1-c1c(Cl)cccc1Cl |  | > 16 | > 16 | > 16 | > 16 | > 16 |  |  |  |  | 
23 | O=[N+]([O-])c1c[nH]cc1-c1cc(Cl)cc(Cl)c1 | 1 | 8 (≈ 31.1 µM) | > 16 | > 16 | 16 (≈ 62.2 µM) | > 16 |  |  |  |  | 
24 | Cn1cc(-c2ccccc2Cl)c([N+](=O)[O-])c1 |  | > 16 | > 16 | > 16 | > 16 | > 16 |  |  |  |  | 
25 | COc1ccc(-c2cn(C)cc2[N+](=O)[O-])c(Cl)c1 | 2 | > 16 | > 16 | > 16 | > 16 | > 16 |  |  |  |  | 
26 | Cn1cc(-c2ccc(Cl)cc2Cl)c([N+](=O)[O-])c1 |  | > 16 | > 16 | > 16 | > 16 | > 16 |  |  |  |  | 
27 | O=C(O)c1cn(Cc2ccc(Cl)cc2)cc1-c1ccc(Cl)cc1 | 8 | 16 (≈ 46.2 µM) | > 16 | > 16 | 16 (≈ 46.2 µM) | > 1 |  |  |  |  | 
28 | O=[N+]([O-])c1c[nH]cc1-c1ccc(Cl)c(Cl)c1 | 2 | 8 (≈ 31.1 µM) | > 16 | > 16 | 16 (≈ 62.2 µM) | > 16 |  |  |  |  | 
29 | NNC(=O)c1c[nH]cc1-c1ccc(Cl)cc1 | 16 | > 16 | > 16 | > 16 | > 16 | > 16 |  |  |  |  | 
